The test addresses human PTGES (Homo sapiens (Human), UniProt O14684). Kind of test: Human PTGES biochemical enzyme inhibition assay (conversion of PGH2 to PGE2, TR-FRET). To be noted: Enzymatic conversion of PGH2 to PGE2; read-out: Human PTGES IC50. The method in brief: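 FLAG-tagged human PTGES from Hi-5 insect cells preincubated 15–20 min with compound in pH 7.2 phosphate buffer with 2.5 mM reduced glutathione; reaction started with 8 nM PGH2 final, stopped with SnCl2/KF.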

For orientation: IC50 means the concentration that inhibits the measured activity by half.

Sequence of human PTGES (O14684 whole entry): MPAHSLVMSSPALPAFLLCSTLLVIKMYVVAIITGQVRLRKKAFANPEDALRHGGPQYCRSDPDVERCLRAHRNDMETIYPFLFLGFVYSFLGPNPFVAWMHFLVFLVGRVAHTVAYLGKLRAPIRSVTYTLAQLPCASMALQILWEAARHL

In the case of `Cc1c(NC(=O)C(c2ccc(-c3cncc(Cl)c3)c(F)c2)C2CCCC2)cccc1C(C)CC(=O)O` (single isomer, unassigned; stereoisomer 4) [Example 129, 3-[3-({[4-(5-Chloropyridin-3-yl)-3-fluorophenyl](cyclopentyl)acetyl}amino)-2-methylphenyl]butanoic acid, Stereoisomer 4], the IC50 was determined as 5.6 nM. Next, `Cc1c(NC(=O)C(c2ccc(-c3cncc(Cl)c3)cc2)C2CCC2)cccc1C(C)CC(=O)O` (single isomer, unassigned; stereoisomer 4) [Example 139]: 107 nM. With `Cc1c(NC(=O)C(c2ccc(-c3cncc(Cl)c3)c(F)c2)C2CCC2)cccc1C(C)CC(=O)O` (single isomer, unassigned; stereoisomer 4) [Example 153, 3-[3-({[4-(5-Chloropyridin-3-yl)-3-fluorophenyl](cyclobutyl)acetyl}amino)-2-methylphenyl]butanoic acid, Stereoisomer 4] the figure was 11.7 nM. With `Cc1cc(-c2ccc(C(C(=O)Nc3cccc(CC(C)C(=O)O)c3C)C3CCCC3)cc2)cnc1C` (centres unmarked) [Example 78, (2R/2S)-3-[3-({(2R/2S)-2-Cyclopentyl-2-[4-(5,6-dimethylpyridin-3-yl)phenyl]acetyl}amino)-2-methylphenyl]-2-methylpropanoic acid], the IC50 came out at 118 nM. Next, `Cc1ccc(-c2ccc(C(C(=O)Nc3cccc(CC(C)C(=O)O)c3C)C3CCCC3)cc2)cn1` (centres unmarked) [Example 79, (2R/2S)-3-[3-({(2R/2S)-2-Cyclopentyl-2-[4-(6-methylpyridin-3-yl)phenyl]acetyl}amino)-2-methylphenyl]-2-methylpropanoic acid]: 433 nM.

As for `Cc1c(CC(C)C(=O)O)cccc1NC(=O)C(c1ccc(-c2cncc(OC(F)F)c2)cc1)C1CCCC1` (centres unmarked) [Example 80, (2R/2S)-3-(3-{[(2R/2S)-2-Cyclopentyl-2-{4-[5-(difluoromethoxy)pyridin-3-yl]phenyl}acetyl]amino}-2-methylphenyl)-2-methylpropanoic acid], the IC50 turned out to be 88.5 nM.

As for `Cc1cncc(-c2ccc(C(C(=O)Nc3cccc(CC(C)C(=O)O)c3C)C3CCCC3)cc2)c1` (centres unmarked) [Example 81, (2R/2S)-3-[3-({(2R/2S)-2-Cyclopentyl-2-[4-(5-methylpyridin-3-yl)phenyl]acetyl}amino)-2-methylphenyl]-2-methylpropanoic acid], the IC50 is 172 nM. Take `Cc1ncc(-c2ccc(C(C(=O)Nc3cccc(CC(C)C(=O)O)c3C)C3CCCC3)cc2)cc1F` (centres unmarked) [Example 82, (2R/2S)-3-[3-({(2R/2S)-2-Cyclopentyl-2-[4-(5-fluoro-6-methylpyridin-3-yl)phenyl]acetyl}amino)-2-methylphenyl]-2-methylpropanoic acid]: the IC50 stood at 90.6 nM. Next, `Cc1c(NC(=O)C(c2ccc(-c3cncc(Cl)c3)c(F)c2)C2CCC2)cccc1C(C)CC(=O)O` (centres unmarked) [Example 149]: 52.1 nM; `Cc1ncc(-c2ccc(C(C(=O)Nc3cccc(C4CC4C(=O)O)c3C)C3CCCC3)cc2)cc1Cl` (centres unmarked) [Example 154, 2-[3-({2-[4-(5-chloro-6-methylpyridin-3-yl)phenyl]-2-cyclopentylacetyl}amino)-2-methylphenyl]cyclopropanecarboxylic acid]: 42.8 nM. As for `CCOc1cncc(-c2ccc(C(C(=O)Nc3cccc(C4CC4C(=O)O)c3C)C3CCCC3)cc2)c1` (centres unmarked) [Example 155, 2-[3-({2-cyclopentyl-2-[4-(5-ethoxypyridin-3-yl)phenyl]acetyl}amino)-2-methylphenyl]cyclopropanecarboxylic acid], the IC50 stood at 158 nM. With `Cc1c(NC(=O)C(c2ccc(-c3cncc(C(F)(F)F)c3)cc2)C2CCCC2)cccc1C1CC1C(=O)O` (centres unmarked) [Example 156, 2-(3-{[2-cyclopentyl-2-{4-[5-(trifluoromethyl)pyridin-3-yl]phenyl}acetyl]amino}-2-methylphenyl)cyclopropanecarboxylic acid] the figure was 32.9 nM. With `Cc1ncc(-c2ccc([C@H](C(=O)Nc3ccc(F)c(CCC(=O)O)c3C)C3CCCC3)cc2)cc1Cl` [Example 184, 3-[3-({(2R)-2-[4-(5-chloro-6-methylpyridin-3-yl)phenyl]-2-cyclopentylacetyl}amino)-6-fluoro-2-methylphenyl]propanoic acid] the figure was 23.7 nM; with `Cc1ncc(-c2ccc([C@H](C(=O)Nc3cccc(N(C)CC(=O)O)c3C)C3CCCC3)cc2)cc1Cl` [Example 187, N-[3-({(2R)-2-[4-(5-chloro-6-methylpyridin-3-yl)phenyl]-2-cyclopentylacetyl}amino)-2-methylphenyl]-N-methylglycine], 23.9 nM; with `Cc1c(CCC(=O)O)cccc1NC(=O)[C@@H](c1ccc(-c2cncc(OC(C)C)c2)cc1)C1CCCC1` [Example 190, 3-(3-{[(2R)-2-cyclopentyl-2-{4-[5-(propan-2-yloxy)pyridin-3-yl]phenyl}acetyl]amino}-2-methylphenyl)propanoic acid], 36.1 nM.

With `Cc1c(CCC(=O)O)cccc1NC(=O)[C@@H](c1ccc(-c2cncc(CC(F)(F)F)c2)cc1)C1CCCC1` [Example 191, 3-(3-{[(2R)-2-cyclopentyl-2-{4-[5-(2,2,2-trifluoroethyl)pyridin-3-yl]phenyl}acetyl]amino}-2-methylphenyl)propanoic acid], the IC50 was found to be 60.1 nM. Next, `Cc1ncc(-c2ccc([C@H](C(=O)Nc3cccc(CCC(=O)O)c3C)C3CCCC3)cc2)cc1C(F)(F)F` [Example 192, 3-(3-{[(2R)-2-cyclopentyl-2-{4-[6-methyl-5-(trifluoromethyl)pyridin-3-yl]phenyl}acetyl]amino}-2-methylphenyl)propanoic acid]: 13.5 nM.

As for `Cc1c(NC(=O)[C@@H](c2ccc(-c3cncc(Cl)c3)cc2)C2CCCC2)cccc1C(O)CC(=O)O` (stereo partly drawn) [Example 193, 3-[3-({(2R)-2-[4-(5-chloropyridin-3-yl)phenyl]-2-cyclopentylacetyl}amino)-2-methylphenyl]-3-hydroxypropanoic acid], the IC50 was 232 nM.

Turning to `COc1c(CCC(=O)O)cccc1NC(=O)C(c1ccc(-c2cncc(C(F)(F)F)c2)cc1)C1CCCC1` (centres unmarked) [Example 213, 3-{3-[(cyclopentyl{4-[5-(trifluoromethyl)pyridin-3-yl]phenyl}acetyl)amino]-2-methoxyphenyl}propanoic acid], the IC50 came out at 328 nM. On to `O=C(O)CCc1cccc(NC(=O)[C@@H](c2ccc(-c3cncc(C(F)(F)F)c3)cc2)C2CCCC2)c1C(F)(F)F` [Example 215, 3-[3-{[(2R)-2-cyclopentyl-2-{4-[5-(trifluoromethyl)pyridin-3-yl]phenyl}acetyl]amino}-2-(trifluoromethyl)phenyl]propanoic acid], for which the IC50 came out at 258 nM.

The record behind these values is patent US10172814B2, “Substituted pyridyl-cycloalkyl-carboxylic acids, compositions containing them and medical uses thereof” (BAYER PHARMA AKTIENGESELLSCHAFT, priority 2014, dated 2019).
